Assay results: PubChem BioAssay AID1918948 (Molecular Pharmacology Branch, DTP, NCI, 2023)
Several values for one entry are separate records, joined by “and”; a condition that tells them apart may be missing. Equal entries are not always repeated. One block for each compound: values may come before it.

Test system: K-562 leukemia growth, % test/control
Test: Anticancer human tumor K-562 cell line growth inhibition;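 as to viability, T/C: 100% = DMSO vehicle wells and lower values mean fewer viable cells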
Conditions: spheroids with HUVEC and MSC; for viability, T/C: stronger effect = lower value
Procedure, shortened: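 Complex spheroids of tumor cells with HUVEC and human MSCs, exposed to iadademstat combined with other agents. Each agent tested in half-log steps from near clinical Cmax (else 10 microM top), DMSO ≤0.25%.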

[1] = curve of first compound, second compound 0.1 µM
[2] = curve of first compound, second compound 0.316 µM
[3] = curve of first compound, second compound 1 µM
[4] = curve of first compound, second compound 3.16 µM
[5] = curve of first compound, second compound 10 µM
[6] = second compound 0.1 µM, first compound 0.00949 µM
[7] = second compound 0.1 µM, first compound 0.03 µM
[8] = second compound 0.1 µM, first compound 0.0949 µM
[9] = second compound 0.1 µM, first compound 0.3 µM
[10] = second compound 0.1 µM, first compound 0.949 µM
[11] = second compound 0.1 µM, first compound 3 µM
[12] = second compound 0.316 µM, first compound 0.00949 µM
[13] = second compound 0.316 µM, first compound 0.03 µM
[14] = second compound 0.316 µM, first compound 0.0949 µM
[15] = second compound 0.316 µM, first compound 0.3 µM
[16] = second compound 0.316 µM, first compound 0.949 µM
[17] = second compound 0.316 µM, first compound 3 µM
[18] = second compound 1 µM, first compound 0.00949 µM
[19] = second compound 1 µM, first compound 0.03 µM
[20] = second compound 1 µM, first compound 0.0949 µM
[21] = second compound 1 µM, first compound 0.3 µM
[22] = second compound 1 µM, first compound 0.949 µM
[23] = second compound 1 µM, first compound 3 µM
[24] = second compound 3.16 µM, first compound 0.00949 µM
[25] = second compound 3.16 µM, first compound 0.03 µM
[26] = second compound 3.16 µM, first compound 0.0949 µM
[27] = second compound 3.16 µM, first compound 0.3 µM
[28] = second compound 3.16 µM, first compound 0.949 µM
[29] = second compound 3.16 µM, first compound 3 µM
[30] = second compound 10 µM, first compound 0.00949 µM
[31] = second compound 10 µM, first compound 0.03 µM
[32] = second compound 10 µM, first compound 0.0949 µM
[33] = second compound 10 µM, first compound 0.3 µM
[34] = second compound 10 µM, first compound 0.949 µM
[35] = second compound 10 µM, first compound 3 µM

Compound: Nc1ccccc1NC(=O)c1ccc(CNC(=O)OCc2cccnc2)cc1 + NC1CCC(NC2CC2c2ccccc2)CC1
- IC50 [1]: 274 nM
- IC50 [2]: 325 nM
- IC50 [3]: 280 nM
- IC50 [4]: 225 nM
- IC50 [5]: 75.5 nM
- viability, T/C [6]: 106%
- viability, T/C [7]: 106%
- viability, T/C [8]: 103%
- viability, T/C [9]: 45.5%
- viability, T/C [10]: 3.36%
- viability, T/C [11]: 0.18%
- viability, T/C [12]: 107%
- viability, T/C [13]: 105%
- viability, T/C [14]: 103%
- viability, T/C [15]: 53.5%
- viability, T/C [16]: 3.47%
- viability, T/C [17]: 0.16%
- viability, T/C [18]: 106%
- viability, T/C [19]: 107%
- viability, T/C [20]: 100%
- viability, T/C [21]: 46.9%
- viability, T/C [22]: 3.81%
- viability, T/C [23]: 0.17%
- viability, T/C [24]: 105%
- viability, T/C [25]: 107%
- viability, T/C [26]: 93.2%
- viability, T/C [27]: 35.6%
- viability, T/C [28]: 4.43%
- viability, T/C [29]: 1.18%
- viability, T/C [30]: 92.5%
- viability, T/C [31]: 83.8%
- viability, T/C [32]: 39.9%
- viability, T/C [33]: 14.1%
- viability, T/C [34]: 2.97%
- viability, T/C [35]: 0.24%

Compound: CC1COCCN1c1cc(-c2ccnn2C)c2ccnc(-c3ccn[nH]3)c2n1 (configuration not stated) + NC1CC1c1ccc(-c2cccc(O)c2)cc1
- IC50 [1]: < 3.16 nM
- IC50 [2]: < 3.16 nM
- IC50 [3]: < 3.16 nM
- IC50 [4]: < 3.16 nM
- IC50 [5]: < 3.16 nM
- viability, T/C (second compound 0.1 µM, first compound 0.00316 µM): 28.6%
- viability, T/C (second compound 0.1 µM, first compound 0.01 µM): 16.1%
- viability, T/C (second compound 0.1 µM, first compound 0.0316 µM): 2.71%
- viability, T/C (second compound 0.1 µM, first compound 0.1 µM): 1.86%
- viability, T/C (second compound 0.1 µM, first compound 0.316 µM): 2.44%
- viability, T/C (second compound 0.1 µM, first compound 1 µM): 2.27%
- viability, T/C (second compound 0.316 µM, first compound 0.00316 µM): 24.4%
- viability, T/C (second compound 0.316 µM, first compound 0.01 µM): 10.3%
- viability, T/C (second compound 0.316 µM, first compound 0.0316 µM): 2.23%
- viability, T/C (second compound 0.316 µM, first compound 0.1 µM): 1.78%
- viability, T/C (second compound 0.316 µM, first compound 0.316 µM): 1.8%
- viability, T/C (second compound 0.316 µM, first compound 1 µM): 1.5%
- viability, T/C (second compound 1 µM, first compound 0.00316 µM): 16.4%
- viability, T/C (second compound 1 µM, first compound 0.01 µM): 7.71%
- viability, T/C (second compound 1 µM, first compound 0.0316 µM): 2.17%
- viability, T/C (second compound 1 µM, first compound 0.1 µM): 1.57%
- viability, T/C (second compound 1 µM, first compound 0.316 µM): 1.71%
- viability, T/C (second compound 1 µM, first compound 1 µM): 1.4%
- viability, T/C (second compound 3.16 µM, first compound 0.00316 µM): 10.6%
- viability, T/C (second compound 3.16 µM, first compound 0.01 µM): 5.99%
- viability, T/C (second compound 3.16 µM, first compound 0.0316 µM): 2.11%
- viability, T/C (second compound 3.16 µM, first compound 0.1 µM): 1.71%
- viability, T/C (second compound 3.16 µM, first compound 0.316 µM): 1.83%
- viability, T/C (second compound 3.16 µM, first compound 1 µM): 1.4%
- viability, T/C (second compound 10 µM, first compound 0.00316 µM): 6.46%
- viability, T/C (second compound 10 µM, first compound 0.01 µM): 4.59%
- viability, T/C (second compound 10 µM, first compound 0.0316 µM): 2.33%
- viability, T/C (second compound 10 µM, first compound 0.1 µM): 1.51%
- viability, T/C (second compound 10 µM, first compound 0.316 µM): 1.64%
- viability, T/C (second compound 10 µM, first compound 1 µM): 1.74%

- IC50 (curve of compound): < 0.949 nM
Compound: CCc1c2c(nc3ccc(O)cc13)-c1cc3c(c(=O)n1C2)COC(=O)[C@]3(O)CC
- viability, T/C (compound 0.000949 µM): 15% and 13.4%
- viability, T/C (compound 0.003 µM): 10.5% and 9.22%
- viability, T/C (compound 0.00949 µM): 5.78% and 4.21%
- viability, T/C (compound 0.03 µM): 2.47% and 1.25%
- viability, T/C (compound 0.0949 µM): 0.78% and 0.75%
- viability, T/C (compound 0.3 µM): 0.65% and 0.82%

Compound: NS(=O)(=O)OCC1CC(n2ccc3c(NC4CCc5ccccc54)ncnc32)CC1O (configuration not stated) + NC1CCC(NC2CC2c2ccccc2)CC1
- IC50 [1]: 17.1 nM
- IC50 [2]: 17 nM
- IC50 [3]: 14.9 nM
- IC50 [4]: 10.9 nM
- IC50 [5]: < 9.49 nM
- viability, T/C [6]: 58.9%
- viability, T/C [7]: 36%
- viability, T/C [8]: 40.5%
- viability, T/C [9]: 27.8%
- viability, T/C [10]: 15.8%
- viability, T/C [11]: 8.88%
- viability, T/C [12]: 58.9%
- viability, T/C [13]: 36.4%
- viability, T/C [14]: 40%
- viability, T/C [15]: 21.4%
- viability, T/C [16]: 13.9%
- viability, T/C [17]: 9.49%
- viability, T/C [18]: 56.7%
- viability, T/C [19]: 36.8%
- viability, T/C [20]: 37%
- viability, T/C [21]: 24.7%
- viability, T/C [22]: 11.8%
- viability, T/C [23]: 8.79%
- viability, T/C [24]: 53.5%
- viability, T/C [25]: 33.4%
- viability, T/C [26]: 33.1%
- viability, T/C [27]: 18.8%
- viability, T/C [28]: 8.53%
- viability, T/C [29]: 5.87%
- viability, T/C [30]: 42%
- viability, T/C [31]: 22.7%
- viability, T/C [32]: 17.9%
- viability, T/C [33]: 8.46%
- viability, T/C [34]: 3.21%
- viability, T/C [35]: 1.65%
